In general, IC50 refers to the concentration needed to halve the response being measured. A lower IC50 goes with greater potency.

The assay deals with T1, prostaglandin E2 type 2 (EP2) receptors (Homo sapiens, UniProt P43116).
T1 construct: These full length receptors are used to prepare 293S cells expressing the EP1, EP2, EP3 and EP4 receptors; expressed in transfected cells; membranes
The assay is described as follows: Assay for Binding to Prostaglandin E2 Receptors (3H-prostaglandin E2 displacement, membranes of transfected 293S cells). Conditions: concentration displacing 50% of specifically bound 3H-prostaglandin E2, 1 hour at 25° C. The method, then: Membrane Preparation: All operations are performed at […]. Transfected cells expressing prostaglandin E2 type 1 receptors (EP1), type 2 (EP2), type 3 (EP3) or type 4 (EP4) receptors are harvested and suspended to 2 million cells per ml in Buffer A [50 mM Tris-HCl (pH 7.4), 10 mM MgCl2, 1 mM EDTA, 1 mM Pefabloc peptide, (Boehringer Mannheim Corp., Indianapolis, Ind.), 10 uM Phosporamidon peptide, (Sigma, St. Louis, Mo.), 1 uM pepstatin A peptide, (Sigma, St. Louis, Mo.), 10 uM elastatinal peptide, (Sigma, St. Louis, Mo.), 100 uM antipain peptide, (Sigma, St. Louis, Mo.)]. The cells are lysed by sonification with a Branson Sonifier (Model #250, Branson Ultrasonics Corporation, Danbury, Conn.) in 2 fifteen second bursts. Unlysed cells and debris are removed by centrifugation, at 100×g for 10 min. Membranes are then harvested by centrifugation at 45,000×g for 30 minutes. […] Resuspended membranes are then stored frozen at −80° C. until use.
Binding Assay: Frozen membranes prepared as above are thawed and diluted to 1 mg protein per ml in Buffer A above. […] The membranes with bound ^3H-prostaglandin E2 are trapped by the filter, while the buffer and unbound ^3H-prostaglandin E2 pass through the filter into waste. Each sample is then washed 3 times with 3 ml of [50 mM Tris-HCl (pH 7.4), 10 mM MgCl2, 1 mM EDTA]. The filters are then dried by heating in a microwave oven.
Typically, PCR (polymerase chain reaction) primers corresponding to the 5′ and 3′ ends of the published full length receptor are made according to the well known methods disclosed above and are used in an RT-PCR reaction using the total RNA from human kidney (for EP1), human lung (for EP2), human lung (for EP3) or human lymphocytes (for EP4) as a source. PCR products are cloned by the TA overhang method into pCR2.1 (Invitrogen, Carlsbad, Calif.) and identity of the cloned receptor is confirmed by DNA sequencing.
Stable cell lines expressing the receptor are established following selection of transfected cells with G418.

T1 sequence (P43116 whole entry): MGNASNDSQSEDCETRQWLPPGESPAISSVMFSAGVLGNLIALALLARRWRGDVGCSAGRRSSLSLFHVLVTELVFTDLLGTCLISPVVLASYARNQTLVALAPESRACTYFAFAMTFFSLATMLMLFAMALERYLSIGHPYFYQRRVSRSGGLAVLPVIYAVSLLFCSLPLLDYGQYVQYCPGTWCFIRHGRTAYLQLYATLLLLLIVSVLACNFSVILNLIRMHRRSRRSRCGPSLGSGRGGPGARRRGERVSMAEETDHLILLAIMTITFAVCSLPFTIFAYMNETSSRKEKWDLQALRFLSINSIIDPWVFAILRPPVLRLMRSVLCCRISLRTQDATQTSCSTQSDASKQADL

For the compound `COC(=O)c1ccccc1S(=O)(=O)N(CCCc1cccc(Cl)c1)CCCc1ccc(C(=O)O)s1` [Example 6e, 5-(3-((3-(3-Chloro-Phenyl)-propyl)-(2-methoxycarbonyl-benzenesulfonyl)-amino)-propyl)-thiophene-2-carboxylic acid], the IC50 stood at 325 nM.
With `O=C(O)c1ccc(CCCN(CCCc2cccc(Cl)c2)S(=O)(=O)c2ccc(Br)cc2)s1` [Example 6f, 5-(3-((4-Bromo-benzenesulfonyl)-(3-(3-chloro-phenyl)-propyl)-amino)-propyl)-thiophene-2-carboxylic acid], the IC50 was 490 nM.
As for `CCC(C)(C)c1ccc(S(=O)(=O)N(CCCc2cccc(Cl)c2)CCCc2ccc(C(=O)O)s2)cc1` [Example 6g, 5-(3-((3-(3-Chloro-phenyl)-propyl)-(4-(1,1-dimethyl-propyl)-benzenesulfonyl)-amino)-Propyl)-thiophene-2-carboxylic acid], the figure is 350 nM; as for `Cc1noc(C)c1S(=O)(=O)N(CCCc1cccc(Cl)c1)CCCc1ccc(C(=O)O)s1` [Example 6h, 5-(3-((3-(3-Chloro-phenyl)-propyl)-(3.5-dimethyl-isoxazole-4-sulfonyl)-amino)-propyl)-thiophene-2-carboxylic acid], 140 nM.
The compound `COc1ccc(OC)c(S(=O)(=O)N(CCCc2cccc(Cl)c2)CCCc2ccc(C(=O)O)s2)c1` [Example 6i, 5-(3-((3-(3-Chloro-phenyl)-propyl)-(2,5-dimethoxy-benzenesulfonyl)-amino)-propyl)-thiophene-2-carboxylic acid] came in with an IC50 of 270 nM.
To `O=C(O)c1ccc(CCCN(CCCc2cccc(Cl)c2)S(=O)(=O)c2ccccc2F)s1` [Example 6j, 5-(3-((3-(3-Chloro-phenyl)-propyl)-(2-fluoro-benzenesulfonyl)-amino)-propyl)-thiophene-2-carboxylic acid] belongs 375 nM; to `CC(C)NC(=O)N(CCCc1cccc(Cl)c1)CCCc1ccc(C(=O)O)s1` [Example 7a, 5-(3-(1-(3-(3-Chloro-phenyl)-propyl)-3-isopropyl-ureido)-propyl)-thiophene-2-carboxylic acid], 400 nM.
On to `O=C(O)c1ccc(CCCN(CCCc2cccc(Cl)c2)C(=O)Nc2ccccc2)s1` [Example 7b, 5-(3-(1-(3-(3-Chloro-phenyl)-propyl)-3-phenyl-ureido)-propyl)-thiophene-2-carboxylic acid], for which the IC50 was 140 nM.
Consider `O=C(O)c1ccc(CCCN(CCCc2cccc(Cl)c2)C(=O)Nc2ccc(Cl)c(Cl)c2)s1` [Example 7c, 5-(3-(1-(3-(3-Chloro-phenyl)-propyl)-3-(3,4-dichloro-phenyl)-ureido)-propyl)-thiophene-2-carboxylic acid], for which the IC50 came out at 260 nM.
As for `CCCNC(=O)N(CCCc1cccc(Cl)c1)CCCc1ccc(C(=O)O)s1` [Example 7d, 5-(3-(1-(3-(3-Chloro-Phenyl)-propyl)-3-propyl-ureido)-propyl)-thiophene-2-carboxylic acid], the figure is 52 nM; as for `O=C(O)c1ccc(CCCN(CCCc2cccc(Cl)c2)C(=O)Nc2cccc(Cl)c2Cl)s1` [Example 7f, 5-(3-(1-(3-(3-Chloro-phenyl)-propyl)-3-(2,3-dichloro-phenyl)-ureido)-propyl) thiophene-2-carboxylic acid], 344 nM; as for `O=C(O)c1ccc(CCCN(CCCc2cccc(Cl)c2)C(=O)Nc2cc(Cl)cc(Cl)c2)s1` [Example 7g, 5-(3-(1-(3-(3-Chloro-phenyl)-propyl)-3-(3,5-dichloro-phenyl)-ureido)-propyl)-thiophene-2-carboxylic acid], 412 nM.
As to `O=C(O)c1ccc(CCCN(CCCc2cccc(Cl)c2)C(=O)Nc2c(F)cccc2F)s1` [Example 7h, 5-(3-(1-(3-(3-Chloro-phenyl)-propyl)-3-(2,6-difluoro-phenyl)-ureido)-propyl)-thiophene-2-carboxylic acid], the half-inhibitory concentration (IC50) was 172 nM.
To `O=C(O)c1ccc(CCCN(CCCc2cccc(Cl)c2)C(=O)N2CCCC2)s1` [Example 8, 5-(3-((3-(3-Chloro-phenyl)-propyl)-(Pyrrolidine-1-carbonyl)-amino)-propyl)-thiophene-2-carboxylic acid] belongs 71 nM; to `O=C(O)c1ccc(CCCN(CCCc2cccc(Cl)c2)C(=O)N2CCOCC2)s1` [Example 8a, 5-(3-((3-(3-Chloro-phenyl)-Propyl)-(morpholine-4-carbonyl)-amino)-propyl)-thiophene-2-carboxylic acid], 180 nM.
`CC(C)OC(=O)N(CCCc1cccc(Cl)c1)CCCc1ccc(C(=O)O)s1` [Example 8b, 5-(3-((3-(3-Chloro-phenyl)-propyl)-isopropoxycarbonyl-amino)-propyl)-thiophene-2-carboxylic acid]: the half-inhibitory concentration (IC50) was 266 nM.
To `CCCCc1ccc(CN(Cc2cccc(CC(=O)O)c2)S(=O)(=O)c2ccccc2)cc1` [Example 9a, (3-((Benzenesulfonyl-(4-butyl-benzyl)-amino)-methyl)-phenyl)-acetic acid] belongs 84.5 nM; to `CCCCc1ccc(CN(Cc2cccc(CC(=O)O)c2)S(=O)(=O)c2cccs2)cc1` [Example 9b, (3-(((4-Butyl-benzyl)-(thiophene-2-sulfonyl)-amino)-methyl)-phenyl)-acetic acid], 94.5 nM.
As for `CCCCc1ccc(CN(Cc2cccc(CC(=O)O)c2)S(=O)(=O)c2ccc(NC(C)=O)cc2)cc1` [Example 9c, (3-(((4-Acetylamino-benzenesulfonyl)-(4-butyl-benzyl)-amino)-methyl)-phenyl)-acetic acid], the figure is 490 nM.
The compound `CCCCc1ccc(CN(Cc2cccc(CC(=O)O)c2)S(=O)(=O)c2cccc3nonc23)cc1` [Example 9d, (3-(((Benzo[1,2,5]oxadiazole-4-sulfonyl)-(4-butyl-benzyl)-amino)-methyl)-phenyl)-acetic acid] returned an IC50 of 203 nM.
As for “(3-(((4-Butyl-benzyl)-(pyridine-3-sulfonyl)-amino)-methyl)-phenyl)-acetic acid [Example 9]”, the figure is 17 nM.

The values are drawn from US20050203086A1, “Methods of treatment using an EP2 selective receptor agonist” (Pfizer Inc., priority 2004, published 2005).
